Results: patent US20240041830A1, “CIRCULATING BIOMARKERS OF RESPONSE TO PD-1/PD-L1 BLOCKADE AND GSK-3 INHIBITION” (Brown University, priority 2022, published 2024)

Columns and labels:
HCT-116 [1] = experiment: Luminex 200 cytokine profiling of cell culture supernatant; assay type: cell-based, human; settings: 1 μM or 5 μM, forty-eight hours
Protocol: (§1) Collection of cell culture supernatants used in cytokine measurements. Cells were plated at 3.5×10^4 cells in a 48-well plate (Thermo Fisher Scientific, Waltham, MA, USA) in complete medium and incubated at 37° C. with 5% CO2. At twenty-four hours after plating, almost all the tumor cells were adherent to the bottom of the flask and the complete medium was replaced with the drug-containing medium. Subsequently, the culture supernatants were collected after forty-eight hours of incubation and were frozen at −80° C. until the measurement of cytokines was performed. On the day of analysis, samples were thawed and centrifuged to remove cellular debris.
(§2) Human cytokine profiling. Human cell line culture supernatants were analyzed using an R&D systems Human Premixed Multi-Analyte Kit (R&D Systems, Inc., Minneapolis, MN, USA) and a Luminex 200 (RRID: SCR_018025) Instrument (LX200-XPON-RUO, Luminex Corporation, Austin, TX, USA) according to the manufacturer's instructions. Sample levels of TNF-α, 4-1BB/TNFRSF9/CD137, IL-8/CXCL8, Ferritin, IFN-β, IL-10, CCL2/JE/MCP-1, VEGF, CXCL13/BLC/BCA-1, IFN-γ, CCL20/MIP-3 α, CCL3/MIP-1 α, CCL22/MDC, CCL4/MIP-1 β, Fas Ligand/TNFSF6, IL-17/1L-17A, IL-2, BAFF/BLyS/TNFSF13B, GM-CSF, CXCLS/ENA-78, TRANCE/TNFSF11/RANK L, CXCL9/MIG, G-CSF, IFN-γ R1/CD119, VEGFR3/Flt-4, C-Reactive Protein/CRP, CXCL11/I-TAC, IL-21, CXCL14/BRAK, IL-6, Fas/TNFRSF6/CD95, TRAIL R3/TNFRSF10C, IL-4, CCL5/RANTES, PD-L1/137-H1, CCL7/MCP-3/MARC, Chitinase 3-like 1, CXCL10/IP-10/CRG-2, IL-1 μ/IL-1F2, IL-7, Prolactin, CCL8/MCP-2, TRAIL R2/TNFRSF10B, M-CSF, IL-15, Granzyme B, IFN-α, TREM-1, IL-12/1L-23 p40, TRAIL/TNFSF10, CCL11/Eotaxin, and 1L-18/1L-1F4. Quantitative analysis with 6 standards and a minimum of 50 counts per bead region was used with the Luminex to generate analyte values reported as picograms/milliliter (pg/mL). Sample concentrations less than the lower limit of detection for each particular analyte were recoded as the lower limit value divided by 10. Sample concentrations above the upper limit of detection for a particular analyte were recoded as the upper limit of detection.
(§3) Huntington, Louie, Zhou, & EI-Deiry, Oncotarget, 12, 1980-1991 (2021). The inventors in this EXAMPLE treated tumor cells (HCT-116, HT-29) with 1 μM or 5 μM elraglusib for forty-eight hours and subsequently analyzed the cell culture supernatant using Luminex 200 technology (FIG. 2H,I).

HT-29 = experiment: as above; assay type: cell-based, human; settings: 1 μM or 5 μM, forty-eight hours
Protocol: as §1, §2, §3

HCT-116 [2] = experiment: Western blot analysis; assay type: cell-based, human
Protocol: Pyroptosis assay. Recombinant Human TNF-α (Cat #300-01A, PeproTech, Rocky Hill, NJ, USA) and Recombinant Human IFN-γ (Cat #300-02, PeproTech, Rocky Hill, NJ, USA) were purchased for use in western blot analysis while rhTRAIL was generated in-house. See Kim et al., J. Biol. Chem., 279, 40044-40052 (2004).
Western blot analysis. Cells were plated in a 6-well plate and incubated overnight before the spent media was replaced with drugged media. Drug treatment lasted for indicated durations. Protein was extracted using radioimmunoprecipitation (RIPA) assay buffer (Cat #R0278, Sigma-Aldrich, St. Louis, MO, USA) containing cOmplete™, Mini, EDTA-free Protease Inhibitor Cocktail (Cat #4693159001, Roche, Basel, Switzerland) from sub-confluent cells. Denaturing sample buffer was added, samples were boiled at 95° C. for ten minutes, and an equal amount of protein lysate was electrophoresed through NuPAGE™ 4 to 12%, bis-Tris, 1.5 mm, Mini Protein Gels (Invitrogen, Waltham, MA, USA) then transferred to PVDF membranes. The PVDF membrane was blocked with 5% non-fat milk (Sigma-Aldrich, St. Louis, MO, USA) in 1× TTBS. Primary antibodies were incubated with the transferred PVDF membrane in blocking buffer at 4° C. overnight. Secondary antibodies included Goat anti-Rabbit IgG (H+L) Secondary Antibody, HRP (Cat #31460, Invitrogen, Waltham, MA, USA), and Goat anti-Mouse IgG (H+L) Secondary Antibody, HRP (Cat #31430, Invitrogen, Waltham, MA, USA). The signal was detected using Pierce™ ECL Western Blotting Substrate (Cat #32106, Thermo Scientific, Waltham, MA, USA) and a Syngene Imaging System (RRID: SCR_015770).
Elraglusib uprequlates tumor cell PD-L1 and proapoptotic pathway expression as well as downregulates immunosuppressive/angiogenic protein expression and pro-survival pathways. The inventors performed Western blot analyses on colorectal cancer cells (HCT-116, HT-29) treated with elraglusib over a 72-hour time course. […] The inventors observed increases in PD-L1 expression as the treatment duration increased. To further elucidate the elraglusib-mediated effects on tumor cell survival, the inventors probed for survival factors Bcl-2 and Survivin and noted decreases in protein expression in both cell lines, especially at the later timepoints (forty-eight hours, seventy-two hours). […] HCT116 cells are heterozygous for β-catenin, harboring one wild-type allele and one mutant allele with inactivation of one of the residues phosphorylated by GSK-3β that is frequently mutated in tumors. Kaler, Augenlicht, & Klampfer, PLoS ONE, 7, e45462 (2012). HT-29, KM12C, and SW480 cells harbor APC mutations. Rowan et al., Proc. Natl. Acad. Sci. USA, 97, 3352 (2000).

[3] = Luminex 200 analysis of patient plasma (NCT03678883); assay type: in vivo, human; settings: eight hours and twenty-four hours after treatment
HT-29 GFP+ cells = experiment: single-color GFP+ immune cell co-culture
Protocol: Single-color immune cell co-culture experiments. A total of 5000 HT-29 GFP+ or HCT 116 GFP+ cells were plated per well in a clear-bottom, black-walled 96-well tissue culture plate and were allowed to adhere overnight. Cells were subsequently treated with DMSO, 5 μM elraglusib, or 5000 TALL-104 or NK-92 cells (for an effector-to-tumor ratio of 1:1) for forty-eight hours. Nine images were taken per well at 10× magnification using a Molecular Devices ImageXpress® Confocal HT.ai High-Content Imaging System and quantified for the number of GFP+ objects using the MetaXpress (RRID: SCR_016654) software (Molecular Devices, San Jose, CA, USA). 40× images were also taken at twenty-four hours for representative images of cellular morphology changes.
To determine if pyroptosis-mediated immune cell activity played a role in the co-culture results, the inventors examined higher-power co-culture images for evidence of pyroptosis.

[4] = especially forty-eight, seventy-two hours

For `Cn1cc(C2=C(c3coc4ccc(F)cc34)C(=O)NC2=O)c2cc3c(cc21)OCO3` [elraglusib], the GDF-15 secretion (HCT-116 [1]) was “decreased secretion”, the GM-CSF secretion (HCT-116 [1]) was “decreased secretion” and the VEGF secretion (HCT-116 [1]) was “decreased secretion”. The CCL5/RANTES in supernatant (HCT-116 [1]; cell line not given) was “downregulated”, the DcR3 in supernatant (HCT-116 [1]; cell line not given) was “downregulated” and the Fas in supernatant (HCT-116 [1]; cell line not given) was “downregulated”. The “soluble PD-L1 (sPD-L1) in supernatant” value (HCT-116 [1]; cell line not given) was “downregulated”, the GDF-15 secretion (HT-29) was “decreased secretion” and the GM-CSF secretion (HT-29) was “decreased secretion”. For the same molecule, the VEGF secretion (HT-29) was “decreased secretion”, the CCL5/RANTES in supernatant (HT-29; cell line not given) was “downregulated” and the DcR3 in supernatant (HT-29; cell line not given) was “downregulated”. For the same molecule, the Fas in supernatant (HT-29; cell line not given) was “downregulated”, the “soluble PD-L1 (sPD-L1) in supernatant” value (HT-29; cell line not given) was “downregulated” and the “NF-κB p65 expression” value (HCT-116 [2]; 72-hour time course) was “decreased expression”. For the same molecule, the PD-L1 expression (HCT-116 [2]; as treatment duration increased) was “increases”, the Mcl-1 protein expression (HCT-116 [2]; by the 24-hour timepoint) was “marked decreases” and the Bcl-2 protein expression (HCT-116 [2]; [4]) was “decreases”. For the same molecule, the Survivin protein expression (HCT-116 [2]; [4]) was “decreases”, the “cleaved PARP (cPARP)” value (HCT-116 [2]; low dose, until the 48-hour timepoint) was “little to no cleaved PARP” and the “plasma cytokines, chemokines, growth factors vs baseline” value [3] was “upregulated”. For the same molecule, the “tumor cell death, significance” value (HT-29 GFP+ cells; NK-92 + elraglusib vs elraglusib only) was “did not show statistical significance”, the tumor cell death (HT-29 GFP+ cells; NK-92 + elraglusib vs immune cells only and DMSO only) was “increased tumor cell death” and the tumor cell death (HT-29 GFP+ cells; TALL-104 + 5 μM elraglusib vs drug-only or T cell-only) was “increased tumor cell death”. For the same molecule, the pyroptotic events (HT-29 GFP+ cells; co-culture with TALL-104, 5 μM elraglusib) was “significant increase”.
